From PubChem BioAssay AID2060890 (Molecular Pharmacology Branch, DTP, NCI, 2025)

Test system: LG0703-F948-PDC complex spheroid viability
Assay: Anticancer human tumor LG0703-F948-PDC patient-derived lung adenocarcinoma cell line growth inhibition [RAS]
Conditions: for IC50: curve of first compound; for viability, T/C: stronger effect = lower value
Text: RAS pathway inhibitors in Combinations in Complex Spheroids
A high-throughput screen of multi-cell type tumor spheroids was designed to identify active combinations of RAS pathway inhibitors and targeted small molecules. Complex spheroids include a stromal component modeled by human endothelial cells (HUVEC) and fibroblasts modeled by human mesenchymal stem cells (MSCs). The concentration ranges selected for each drug and investigational agent were based upon clinically achievable concentrations if the clinical Cmax of the agent was known.
Compounds. The drugs and investigational agents: abemaciclib (NSC768073), cobimetinib (NSC768068), divarasib (GDC6063, NSC841802), docetaxel (NSC628503), GDC-1971 (RLY-1971, NSC841576), gemcitabine (NSC613327), inavolisib (NSC800729), ipatasertib (NSC767898), KB-0742 (NSC834161), MRTX-1133 (NSC836407), osimertinib (NSC779217), RMC-4630 (NSC839698), RMC-6236 (NSC851965), RMC-6291 (NSC852671), Ro-3306 (NSC812927), sapanisertib (NSC764658), SN-38 (NSC673596), staurosporine (NSC755774), SY5609 (NSC837396), and tovorafenib (DAY101, NSC766906), were obtained from the National Cancer Institute (NCI) Developmental Therapeutics Program Chemical Repository. The FDA-approved anticancer drug set is available from the NCI Developmental Therapeutics Program. […] The stock solutions were prepared in dimethyl sulfoxide (DMSO, Sigma-Aldrich, St. Louis, MO, cat. D2650) at 800-fold the tested concentration and stored at -70 degrees C prior to their use. All drugs and investigational agents were tested over a range starting from a high concentration at or near the clinical Cmax and decreasing in half-log increments. If the clinical Cmax for an agent had not been determined, the highest concentration tested was 10 microM.
Cell Culture. All cells were maintained in an incubator at 37 degrees C and 5% CO2 with 95% humidity. The PDC lines were cultured according to standard operating procedures established by the NCI PDMR. All PDCs were thawed and cultured in Matrigel-coated flasks prepared with a working solution of 1X Ham's F-12 nutrient mix, without supplementation (Invitrogen, Waltham, MA, cat. 11765054), 100 U/mL penicillin-streptomycin (Invitrogen, cat. 15140122), and 2.5% Matrigel (Corning Inc., Corning, NY, cat. 354248) for the first three passages. The 362531-283-R-J2-PDC and 782815-120-R-J1-PDC lines were cultured in 6C/Colon 1B media, which includes advanced DMEM/F-12 (Thermo Fisher Scientific, cat. 12634028), 10 mM HEPES (Thermo Fisher Scientific, cat. 15630080), 1X GlutaMAX supplement (Thermo Fisher Scientific, cat. 35050061), 0.1 mg/mL primocin (InvivoGen, San Diego, CA, cat. ant-pm-2), 10% defined fetal bovine serum, heat inactivated (HyClone Laboratories Inc., Logan, UT, cat. SH30070.03HI), 50% L-WRN conditioned media (ATCC, cat. CRL-3276), 1.25 mM N-Acetyl-L-cysteine (Sigma-Aldrich, cat. A9165), 10 mM nicotinamide (Sigma-Aldrich, cat. N0636), 1X B-27 supplement (Thermo Fisher Scientific, cat. 17504044), 1X N-2 supplement (Thermo Fisher Scientific, cat. 17502048), 50 ng/mL human EGF (Thermo Fisher Scientific, cat. PHG0311), and 10 microM Y-27632 dihydrochloride (Tocris Bioscience, cat. 1254). The K12877-001-R-J1-PDC line was cultured in 6I media, which includes all 6C/Colon 1B media plus 10 ng/mL human FGF-10 (PeproTech, cat. 100-26), 1 ng/mL human FGF-2 (PeproTech, cat. 100-18B), 1 µM prostaglandin E2 (Tocris Bioscience, cat. 2296), […] hydrocortisone (Sigma-Aldrich, cat. H4001), and […] bovine insulin (Sigma-Aldrich, cat. I6634). The K86415-001-R-J1-PDC line was cultured in 6D media, which includes all 6C/Colon 1B media components minus the L-WRN conditioned media. The 485176-168-R4-J1-PDC was cultured in PANC media, which includes all 6C/Colon 1B media plus 100 ng/mL human FGF-10 (PeproTech, cat. 100-26), 500 nM SB-431542 (Selleckchem, cat. S1067), and 10 nM gastrin (Tocris Bioscience, cat. 3006). […]
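Also: spheroids exposed to agents for 7 days.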
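For viability, T/C in this document: 100% = DMSO vehicle wells.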

## Nc1ccn(C2OC(CO)C(O)C2(F)F)c(=O)n1 (configuration not stated) + C=CC(=O)N1CCN(c2nc(OCC3CCCN3C)nc3c(F)c(-c4nc(N)cc(C)c4C(F)(F)F)c(Cl)cc23)C(C)C1
Second compound 0.00316 µM
  IC50: 4.92 nM
Second compound 0.01 µM
  IC50: 4.93 nM
Second compound 0.0316 µM
  IC50: 5.48 nM
Second compound 0.1 µM
  IC50: 5.32 nM
Second compound 0.316 µM
  IC50: 5.96 nM
Second compound 1 µM
  IC50: 5.85 nM
Second compound 0.00316 µM, first compound 0.00316 µM
  viability, T/C: 57.6%
Second compound 0.00316 µM, first compound 0.01 µM
  viability, T/C: 38.4%
Second compound 0.00316 µM, first compound 0.0316 µM
  viability, T/C: 27.3%
Second compound 0.00316 µM, first compound 0.1 µM
  viability, T/C: 28.2%
Second compound 0.00316 µM, first compound 0.316 µM
  viability, T/C: 29.4%
Second compound 0.00316 µM, first compound 1 µM
  viability, T/C: 6.7%
Second compound 0.01 µM, first compound 0.00316 µM
  viability, T/C: 58.7%
Second compound 0.01 µM, first compound 0.01 µM
  viability, T/C: 36.9%
Second compound 0.01 µM, first compound 0.0316 µM
  viability, T/C: 25.1%
Second compound 0.01 µM, first compound 0.1 µM
  viability, T/C: 25.1%
Second compound 0.01 µM, first compound 0.316 µM
  viability, T/C: 24.6%
Second compound 0.01 µM, first compound 1 µM
  viability, T/C: 21.7%
Second compound 0.0316 µM, first compound 0.00316 µM
  viability, T/C: 61.6%
Second compound 0.0316 µM, first compound 0.01 µM
  viability, T/C: 36.7%
Second compound 0.0316 µM, first compound 0.0316 µM
  viability, T/C: 30.1%
Second compound 0.0316 µM, first compound 0.1 µM
  viability, T/C: 24%
Second compound 0.0316 µM, first compound 0.316 µM
  viability, T/C: 24.1%
Second compound 0.0316 µM, first compound 1 µM
  viability, T/C: 23.3%
Second compound 0.1 µM, first compound 0.00316 µM
  viability, T/C: 62.1%
Second compound 0.1 µM, first compound 0.01 µM
  viability, T/C: 35.4%
Second compound 0.1 µM, first compound 0.0316 µM
  viability, T/C: 26.8%
Second compound 0.1 µM, first compound 0.1 µM
  viability, T/C: 26.3%
Second compound 0.1 µM, first compound 0.316 µM
  viability, T/C: 26.8%
Second compound 0.1 µM, first compound 1 µM
  viability, T/C: 22.7%
Second compound 0.316 µM, first compound 0.00316 µM
  viability, T/C: 74.2%
Second compound 0.316 µM, first compound 0.01 µM
  viability, T/C: 30%
Second compound 0.316 µM, first compound 0.0316 µM
  viability, T/C: 29.9%
Second compound 0.316 µM, first compound 0.1 µM
  viability, T/C: 25.3%
Second compound 0.316 µM, first compound 0.316 µM
  viability, T/C: 27.1%
Second compound 0.316 µM, first compound 1 µM
  viability, T/C: 29.1%
Second compound 1 µM, first compound 0.00316 µM
  viability, T/C: 63%
Second compound 1 µM, first compound 0.01 µM
  viability, T/C: 38.3%
Second compound 1 µM, first compound 0.0316 µM
  viability, T/C: 29%
Second compound 1 µM, first compound 0.1 µM
  viability, T/C: 30.1%
Second compound 1 µM, first compound 0.316 µM
  viability, T/C: 25.2%
Second compound 1 µM, first compound 1 µM
  viability, T/C: 21.4%
